Test results reported in the supplement of paper PMC4932681.

How the values were obtained:
ZR-75-1 Tam1 [1] = assay: relative IC50 (midpoint of fitted logistic curve, plateau may be below 50% inhibition; CellTiter-Glo viability); higher = less potent; conditions: 4-OH-tamoxifen in medium 1 µM; 72 h
Protocol: (§1)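 FIMM FO2B library drugs were plated at 5 concentrations spanning a 10,000-fold range in 384-well plates. Cells were incubated for 72 h at 37 °C and viability was read by CellTiter-Glo, normalised to DMSO (0% inhibition) and 100 µM benzethonium chloride (100% inhibition). IC50 values come from logistic dose-response fits (Breeze pipeline). Tamoxifen-resistant lines and the 'in 1µM tamoxifen' parental arms were tested in medium with 1 µM 4-OH-tamoxifen.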

T-47D [2] = assay: as above; conditions: 72 h
Protocol: as §1

ZR-75-1 Tam2 [3] = assay: as above; conditions: 4-OH-tamoxifen in medium 1 µM; 72 h
Protocol: as §1

BT-474 Tam1 [4] = assay: as above; conditions: 4-OH-tamoxifen in medium 1 µM; 72 h
Protocol: as §1

BT-474 Tam2 [5] = assay: as above; conditions: 4-OH-tamoxifen in medium 1 µM; 72 h
Protocol: as §1

ZR-75-1 [6] = assay: as above; conditions: 72 h
Protocol: as §1

BT-474 [7] = assay: as above; conditions: 72 h
Protocol: as §1

ZR-75-1 Tam1 [8] = assay: drug sensitivity score (DSS) (DSS (dimensionless)); higher = more sensitive; extreme values may be limits of the assay; conditions: 4-OH-tamoxifen in medium 1 µM; 72 h
Protocol: (§2)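 FIMM FO2B library drugs were tested at 5 concentrations (10,000-fold range) for 72 h, with CellTiter-Glo viability normalised to DMSO and benzethonium chloride controls. The Drug Sensitivity Score (DSS) is computed from the fitted logistic dose-response curve (area-based; 0 = inactive). Resistant lines and the 'in 1µM tamoxifen' arms were tested in 1 µM 4-OH-tamoxifen.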

MCF-7 [9] = assay: as above; conditions: 72 h
Protocol: as §2

T-47D [10] = assay: as above; conditions: 72 h
Protocol: as §2

T-47D Tam2 = assay: as above; conditions: 4-OH-tamoxifen in medium 1 µM; 72 h
Protocol: as §2

ZR-75-1 Tam2 [11] = assay: as above; conditions: 4-OH-tamoxifen in medium 1 µM; 72 h
Protocol: as §2

MCF-7 Tam1 = assay: as above; conditions: 4-OH-tamoxifen in medium 1 µM; 72 h
Protocol: as §2

BT-474 Tam1 [12] = assay: as above; conditions: 4-OH-tamoxifen in medium 1 µM; 72 h
Protocol: as §2

BT-474 Tam2 [13] = assay: as above; conditions: 4-OH-tamoxifen in medium 1 µM; 72 h
Protocol: as §2

T-47D Tam1 = assay: as above; conditions: 4-OH-tamoxifen in medium 1 µM; 72 h
Protocol: as §2

ZR-75-1 [14] = assay: as above; conditions: 72 h
Protocol: as §2

BT-474 [15] = assay: as above; conditions: 72 h
Protocol: as §2

MCF-7 [16] = assay: relative IC50 (midpoint of fitted logistic curve, plateau may be below 50% inhibition; CellTiter-Glo viability); higher = less potent; conditions: 72 h
Protocol: as §1

Row | Structure (SMILES) | relative IC50 (ZR-75-1 Tam1 [1]) [µM] | relative IC50 (T-47D [2]; 4-OH-tamoxifen in medium 0 µM) [µM] | relative IC50 (T-47D [2]; 4-OH-tamoxifen in medium 1 µM) [µM] | relative IC50 (ZR-75-1 Tam2 [3]) [µM] | relative IC50 (BT-474 Tam1 [4]) [µM] | relative IC50 (BT-474 Tam2 [5]) [µM] | relative IC50 (ZR-75-1 [6]; 4-OH-tamoxifen in medium 0 µM) [µM] | relative IC50 (ZR-75-1 [6]; 4-OH-tamoxifen in medium 1 µM) [µM] | relative IC50 (BT-474 [7]; 4-OH-tamoxifen in medium 0 µM) [µM] | drug sensitivity score (ZR-75-1 Tam1 [8]) | drug sensitivity score (MCF-7 [9]; 4-OH-tamoxifen in medium 0 µM) | drug sensitivity score (MCF-7 [9]; 4-OH-tamoxifen in medium 1 µM) | drug sensitivity score (T-47D [10]; 4-OH-tamoxifen in medium 0 µM) | drug sensitivity score (T-47D [10]; 4-OH-tamoxifen in medium 1 µM) | drug sensitivity score (T-47D Tam2) | drug sensitivity score (ZR-75-1 Tam2 [11]) | drug sensitivity score (MCF-7 Tam1) | drug sensitivity score (BT-474 Tam1 [12]) | drug sensitivity score (BT-474 Tam2 [13]) | drug sensitivity score (T-47D Tam1) | drug sensitivity score (ZR-75-1 [14]; 4-OH-tamoxifen in medium 0 µM) | drug sensitivity score (ZR-75-1 [14]; 4-OH-tamoxifen in medium 1 µM) | drug sensitivity score (BT-474 [15]; 4-OH-tamoxifen in medium 0 µM) | drug sensitivity score (BT-474 [15]; 4-OH-tamoxifen in medium 1 µM) | relative IC50 (MCF-7 [16]; 4-OH-tamoxifen in medium 1 µM) [µM] | relative IC50 (BT-474 [7]; 4-OH-tamoxifen in medium 1 µM) [µM] | relative IC50 (MCF-7 [16]; 4-OH-tamoxifen in medium 0 µM) [µM]
1 | Cn1cnc2c(F)c(Nc3ccc(Br)cc3F)c(C(=O)NOCCO)cc21 [MEK-162 (ARRY-162)] | > 1 | > 1 | > 1 | > 1 | > 1 | > 1 | > 1 | > 1 | > 1 | 0 | 0.0194 | 1.02 | 0 | 0 | 0.511 | 0 | 0 | 0 | 0 | 3.1 | 0 | 0 | 0 | 1.07 |  |  | 
2 | C=CC[C@@H]1/C=C(\C)C[C@H](C)C[C@H](OC)[C@H]2O[C@@](O)(C(=O)C(=O)N3CCCC[C@H]3C(=O)O[C@H](/C(C)=C/[C@@H]3CC[C@@H](O)[C@H](OC)C3)[C@H](C)[C@@H](O)CC1=O)[C@H](C)C[C@@H]2OC [Tacrolimus (FK 506)] |  | > 10 | > 10 |  | 2.79 | 1.41 | > 10 |  | > 10 | 0.336 | 0.766 | 3.51 | 0 | 0 | 0.788 | 0.01 | 1.18 | 2.73 | 2.96 | 2.72 | 0 | 0.622 | 0 | 1.97 | 1.23 | 3.13 | 
3 | COc1ccc(C2=N[C@@H](c3ccc(Cl)cc3)[C@@H](c3ccc(Cl)cc3)N2C(=O)N2CCNC(=O)C2)c(OC(C)C)c1 [Nutlin-3] | 1.9 | > 10 | > 10 | 1.35 | 3.21 |  | 2.79 |  | > 10 | 2.29 | 2.64 | 3.36 | 0 | 0 | 0.429 | 4.17 | 0.214 | 1.52 | 2.34 | 0.605 | 1.96 | 2.65 | 0 | 0.0005 | 2.08 |  | 
4 | CC(=O)c1c(C)c2cnc(Nc3ccc(N4CCNCC4)cn3)nc2n(C2CCCC2)c1=O |  |  | > 10 |  |  | > 10 | > 10 |  |  | 1.11 | 3.32 | 3.28 | 2.46 | 0 | 1.34 | 1.63 | 0.967 | 0 | 0 | 2.49 | 0 | 0.745 | 0 | 0 |  | > 10 | 1.16
5 | CC(C)c1c(C(=O)Nc2ccccc2)c(-c2ccccc2)c(-c2ccc(F)cc2)n1CC[C@@H](O)C[C@@H](O)CC(=O)O [Atorvastatin] | 1.72 | 1.82 | 3.21 | 1.43 |  |  | 1.17 | 1.65 |  | 3.76 | 0.619 | 1.69 | 2.75 | 1.73 | 0.823 | 3.56 | 0 | 0.517 | 2.17 | 3.38 | 4.64 | 2.87 | 0.471 | 0 |  | > 10 | 
6 | COc1cc2nccc(Oc3ccc(NC(=O)Nc4cc(C)on4)c(Cl)c3)c2cc1OC [Tivozanib  (AV-951)] | > 10 |  |  |  | 3.12 | 3.91 |  | > 10 | 3.57 | 0 | 0.0979 | 0.0672 | 0.499 | 0.378 | 0.444 | 0 | 0.0468 | 4.02 | 1.74 | 0.968 | 0.0461 | 0 | 1.25 | 3.61 |  | 3.67 | 
7 | S=c1[nH]cnc2nc[nH]c12 [Mercaptopurine] | 1.27 | > 10 | > 10 |  | > 10 | > 10 | 1.17 |  | > 10 | 3.2 | 0.509 | 2.88 | 0 | 0 | 0 | 1.17 | 0.313 | 0 | 0 | 0.0158 | 3.86 | 0 | 0 | 1.43 |  |  | 
